For assay [1] the following is noted: Jackson et al., J Pharmacol Exp Ther 2016; cited from earlier work.
The subject of assay [2] is deoxycorticosterone/salt-induced hypertension. The conditions noted are these: chronic oral treatment of rats; Jackson et al. 2016; cited from earlier work.
The subject of assay [3] is aged rats. Put plainly: Voiding analysis in metabolic cages, aged rats. The format is in vivo, rat. The conditions noted are these: aged rats; intravesical 5 μM forodesine plus 10 μM DEA-NONOate, 3 weeks of treatment; vs aged control rats. The method, then: Experimental design: Young (3 months of age) and aged (25 to 30 months of age) Fisher 344 rats were used in these experiments. Some of the aged Fisher 344 rats were treated with 8-AG (5 mg kg/day via drinking water) for 1 month.
Voiding analysis: Rats were placed in metabolic cages for 24 hr (once per week for the duration of the study). Voided urine was collected in cups attached to force displacement transducers (GRASS TECHNOLOGIES®, Warwick, R.I.) connected to a computer running WINDAQ™ data acquisition software (DATAQ™ Instruments Inc., Akron, Ohio). Data were averaged for 24 h, and voiding frequency, total voided volume, and volume per void were analyzed. Voiding frequency was calculated as the number of voiding events per hour during 24 h, and volume per void, which defines bladder capacity, was calculated as an average of the voids occurring during these periods.
Animals: Male and female Fisher 344 rats were employed (Charles River; Wilmington, Mass. and the NIA rodent colony). Some rats were young (3 months of age), some were aged (25-30 months of age), and others were aged and treated with oral 8-AG (5 mg/kg/day; 6 weeks). Under isoflurane anesthesia and using an aseptic technique, an incision was made into the lower abdomen and in the scapular area. Sterile PE50 tubing was threaded subcutaneously from the lower abdomen to the scapular area and connected to a one-channel vascular access button (Intech Laboratories, Plymouth Meeting, Pa.). In the abdomen, the tubing was inserted into the bladder and secured with a small purse-string suture. The incisions were closed, and the animals were allowed to recover for 7-10 days before further experimentation. Animals were divided into three groups. A control group of aged rats received daily infusions with 10 μM DEA-NONOate (SIGMA-ALDRICH®, St. Louis, Mo.) in sterile 0.9% saline. A second group received 100 μM 8-AG plus 10 μM DEA-NONOate in 0.9% saline, and a third group received 5 μM forodesine (SIGMA-ALDRICH®) plus 10 μM DEA-NONOate in 0.9% saline. Bladders were instilled via a catheter tether kit (Instech Laboratories) connected to a syringe pump for continuous infusion (rate 200 μl/min; 30 minutes/daily) for 3-6 weeks. The Institutional Animal Care and Use Committee approved all procedures. The investigation conforms to the Guide for the Care and Use of Laboratory Animals published by the US National Institutes of Health (NIH Publication No. 85-23, revised 1996).
Protocol 1: Young, aged, and 8-AG-treated aged rats were placed in metabolism cages for 24 hr once per week. The light cycle was from 7:00 AM to 7:00 PM, and food and water were provided ad libitum. Voided urine was collected in cups attached to force displacement transducers (GRASS TECHNOLOGIES®, Warwick, R.I.) that were connected to a computer running Windaq data acquisition software (DATAQ® Instruments I2nc., Akron, Ohio). Data were averaged for 24 h and analyzed for 12-h periods during the day (7:00 AM-7:00 PM) and night (7:00 PM-7:00 AM). Voiding frequency, total voided volume, and volume per void were analyzed. Voiding frequency was calculated as the number of voiding events per hour during 24 h and during the 12-h day and 12-h night periods. Volume per void, which defines bladder capacity, was calculated as an average of the voids occurring during these periods.
Voiding Analysis: Young, aged, and 8-AG-treated aged rats were placed in metabolic cages (24 hr; once per week) for the duration of the study. The light cycle was from 7:00 AM to 7:00 PM, and food and water were provided ad libitum. Voided urine was collected in cups attached to force displacement transducers (Grass Technologies, Warwick, R.I.) connected to a computer (Windaq data acquisition software DATAQ Instruments Inc., Akron, Ohio). Data were averaged for 24 h and analyzed for 12-h periods during the day (7:00 AM-7:00 PM) and night (7:00 PM-7:00 AM). Voiding frequency, total voided volume, and volume per void were analyzed. […]

The subject of assay [4] is aged rats. Put plainly: Voiding analysis in metabolic cages, aged rats. The format is in vivo, rat. The conditions noted are these: aged rats; intravesical 5 μM forodesine plus 10 μM DEA-NONOate, 3 weeks of treatment; vs aged control rats. The source holds these as a separate data set.

This is an account of results in patent publication US20220054494A1, “METHODS FOR TREATING BLADDER AND URETHRA DYSFUNCTION AND DISEASE” (University of Pittsburgh - Of the Commonwealth System of …, priority 2019, published 2022).

The structures appear in SMILES notation. Entries after “also recorded” stand apart in the source; their conditions may differ.

As to `Nc1nc2c(nc(N)n2[C@@H]2O[C@H](CO)[C@@H](O)[C@H]2O)c(=O)[nH]1` [8-aminoguanosine, 8-Aminoguanosine, reference compound], in assay [1], the diuresis result is “induce”, the glucosuria entry was “induce”, the natriuresis result was “induce” and the potassium excretion result is given as “reduce”. Moreover, the “development of deoxycorticosterone/salt-induced hypertension” value in assay [2] is “attenuate”.
As for `O=c1[nH]cnc2c([C@@H]3N[C@H](CO)[C@@H](O)[C@H]3O)c[nH]c12` [forodesine, 7-[(2S,3S,4R,5R)-3,4-dihydroxy-5-(hydroxymethyl)pyrrolidin-2-yl]-3H,4H,5H-pyrrolo[3,2-d]pyrimidin-4-one, reference compound], in the assay with aged rats [3], the voided volume result is recorded as “significant improvement; also recorded: significantly attenuates” and the voiding frequency result is recorded as “significant improvement; also recorded: significantly attenuates”. In addition, the inter-contraction interval entry with aged rats [4] is “significant improvement; also recorded: significantly attenuates”.
